Reference: patent publication US8337941B2, “Fluorescent substrates for monoamine transporters as optical false neurotransmitters” (The Trustees of Columbia University in the City of New York, priority 2006, dated 2012)
“Also recorded” adds a separate entry of the source. Where two headings read alike, the source gives them in different places.

Experiments:
[1] = photophysical characterization (fluorescence spectra); assay type: physicochemical; settings: for λem / λex: 100 mM sodium phosphate pH 7.4, 10 uM probe; for pH dependency of fluorescence: spectra at pH 2, 5, 7.4, 9 and 12
Protocol: All spectra were recorded in 100 mM sodium phosphate (pH 7.4) unless otherwise indicated. Recorded λmax is that of the longest wavelength transition. Extinction coefficients were reported as the average of at least three independent preparations of the probes. Fluorescence measurements were taken on a Jobin Yvon Fluorolog fluorescence spectrofluorometer in 100 mM sodium phosphate pH 7.4 at a concentration of 10 uM in probe, excited at their respective λmax.

VMAT2 = target: T1, VMAT2 (Homo sapiens, UniProt Q05940); experiment: in vitro competitive binding assay, membranes from HEK cells stably transfected with VMAT2; settings: inhibition of binding to membranes from HEK cells stably transfected with VMAT2; read-out: apparent IC50
T1 construct: expressed in transfected cells; host or cells: HEK cells, stably transfected; membranes
Description: On the basis of initial encouraging results, compound FFN 511 was submitted to rigorous investigation, from which it emerged as a promising imaging probe. Catecholamines are stored in chromaffin large dense core vesicles (LDCVs), which contain vesicular monoamine transporter 1 (VMAT1). Although VMAT 1 and 2 are distinct proteins, they share many functional characteristics.

DA terminals = experiment: labeling and destaining of DA terminals in live striatal acute slice; assay type: cell-based, mouse
Description: Distribution of FFN 511 was compared to DA neurons using striatal slices prepared from a transgenic mouse expressing GFP under the control of tyrosine hydroxylase (TH) promoter (36).
As FFN 511 was applied in a “pulse-chase” pattern, with the extracellular probe washed out following accumulation in the terminals, these experiments essentially measure the amount of DA remaining in the terminal and the released transmitter. The probability of release from a given terminal under a particular stimulus condition is simply the fractional destaining, i.e., Pterminal=Ft/(Ft0−Fbkgnd) Pterminal=1−(Ft−Fbkg)/(Ft0−Fbkg),
where Ft0 is the initial fluorescent intensity and Fbkgnd is the label remaining after maximal stimulus is applied.

chromaffin cells [2] = experiment: probe uptake and labeling in chromaffin cells by fluorescence microscopy; assay type: cell-based, mouse
Description: Chromaffin cells are an excellent model system as the cytoplasm of these cells in culture is almost completely filled with large dense core vesicles that accumulate catecholamines by VMAT.
If necessary, metabolism of the probes by MAO (present in mitochondria) may be reduced by the addition of a suitable inhibitor (deprenyl for MAO B, clorgyline for MAO A) or by simply methylating the α-position of the amine (10, 14).
Catecholamines are stored in chromaffin large dense core vesicles (LDCVs), which contain vesicular monoamine transporter 1 (VMAT1). Although VMAT 1 and 2 are distinct proteins, they share many functional characteristics.

evoked DA release = evoked DA release in slice measured by cyclic voltammetry; assay type: cell-based, mouse
Description: FFN 511 was destained by neuronal stimulation in a calcium-dependent manner under conditions identical to those that release DA as measured by simultaneous cyclic voltammetry. (FFN 511 is not oxidized and not measured by cyclic voltammetry).

chromaffin cells [3] = experiment: TIRF assay of stimulation-dependent exocytosis from FFN 511-loaded chromaffin granules; assay type: cell-based, mouse; settings: single LDCV
Description: Total internal reflectance fluorescence microscopy (TIRF) was used as a functional assay for the ability of FFN 511-loaded chromaffin granules to undergo stimulation-dependent exocytosis. TIRF allows for fluorescence excitation in a narrow −100 nm thick layer of the cell immediately adjacent to the surface.

[4] = 4 Hz stimulation, in the presence of calcium

T1 sequence (Q05940 whole entry, species assumed): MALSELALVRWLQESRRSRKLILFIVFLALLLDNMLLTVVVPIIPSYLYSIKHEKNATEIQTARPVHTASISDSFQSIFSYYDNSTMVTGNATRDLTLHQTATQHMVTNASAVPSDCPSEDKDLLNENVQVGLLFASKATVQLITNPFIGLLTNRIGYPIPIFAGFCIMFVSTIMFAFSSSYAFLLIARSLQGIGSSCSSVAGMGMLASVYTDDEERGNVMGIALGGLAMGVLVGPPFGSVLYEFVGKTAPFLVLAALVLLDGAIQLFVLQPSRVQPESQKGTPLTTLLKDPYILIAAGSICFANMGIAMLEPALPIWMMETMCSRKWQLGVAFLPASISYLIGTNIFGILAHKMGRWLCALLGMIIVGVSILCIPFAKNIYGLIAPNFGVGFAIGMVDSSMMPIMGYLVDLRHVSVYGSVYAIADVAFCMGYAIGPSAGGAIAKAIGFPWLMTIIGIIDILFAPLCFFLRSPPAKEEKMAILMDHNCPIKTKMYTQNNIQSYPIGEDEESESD

CCN(CC)c1ccc2c(C)cc(=O)oc2c1 [Coumarin 1, reference compound]
behaviour of fluorescence in water / aqueous buffer solution [1]: drops in water
λem [1]: 470 nm
λex [1]: 384 nm

NCCc1ccc(O)c(O)c1 [DA, dopamine, reference compound]
IC50 (VMAT2): ~1 µM

O=C(O)C(F)(F)F.O=c1cc(O)c2ccc(N3CCNCC3)cc2o1 [Probe 484, 4-(4—Hydroxy-coumarin-7-yl)-piperazin-1-ium trifluoroacetate]
λem [1]: 385 nm
λex [1]: 319 nm
pH dependency of fluorescence ([1]; trifluoroacetate): possess pH-dependency; also recorded: shift in fluorescence emission maxima seen with changing pH

NCCNc1ccc2ccc(=O)oc2c1 [Probe 505, 7-(2-Amino-ethylamino)-coumarin]
λem [1]: 455 nm
λex [1]: 361 nm

NCCc1cc(=O)oc2c3c4c(cc12)CCCN4CCC3 [Probe 511, 8-(2-Amino-ethyl)-2,3,5,6-tetrahydro-1H,4H-11-oxa-3a-aza-benzo[de]anthracen-10-one]
number of action potentials to release about 50% of the terminal content (DA terminals; [4]): 640 action potentials
time to release about 50% of the terminal content (DA terminals; [4]): ~160 s
fluorescent labeling in corpus callosum (DA terminals; acute slices, mouse CNS): no labeling
fluorescent labeling in cortex (DA terminals; acute slices, mouse CNS): fainter fluorescence with patchy distribution
fluorescent labeling in striatum (DA terminals; acute slices, mouse CNS): clearly observed in presynaptic terminals
FFN 511 labeling after unilateral 6-OHDA lesion of DA neurons (DA terminals; injected hemisphere, slices 21 days post-lesion): nearly completely abolished
calcium dependence of stimulated destaining (DA terminals; neuronal stimulation): completely dependent on the presence of calcium
labeling of chromaffin cells (chromaffin cells [2]): selectively label healthy chromaffin cells
duration of linear increase of intracellular probe concentration (fluorescence) (chromaffin cells [2]; 500 nM in physiological saline solution): at least 60 minutes
uptake into chromaffin vesicles (chromaffin cells [2]; At 50 nM): actively taken up into chromaffin vesicles
time window in which uptake is linear (chromaffin cells [2]; FFN 511 500 nM, single chromaffin cells): 10 to 60 min
accumulation in acidic compartments of the cells (chromaffin cells [2]; abolished by chloroquine exposure): accumulates in acidic compartments
fluorescence after addition of lipophilic weak base chloroquine (chromaffin cells [2]; chloroquine 100 μM): completely abolished
staining of cell nuclei (chromaffin cells [2]; chromaffin cells): nuclear exclusion
effect of VMAT inhibitor tetrabenazine on probe uptake (chromaffin cells [2]; chromaffin cells, TBZ 10 uM (FIG. 20), p=0.001 vs control): abolished by Tetrabenazine; also recorded: inhibited by tetrabenazene
emission maximum ([1]; compared with GFP): ~500 nm
pH dependency of fluorescence [1]: increased fluorescence seen at alkaline pH values
effect on evoked DA release at higher concentrations (evoked DA release): reduced evoked DA release
effect on evoked DA release at levels sufficient to label the terminals (evoked DA release): did not alter evoked DA release
release from LDCVs on high potassium stimulation (chromaffin cells [3]): released by exocytosis
IC50 (VMAT2): 2.5 µM

CN(C)c1ccc2cc3ccc(N(C)C)cc3nc2c1 [acridine orange, reference compound]
behaviour of fluorescence in water / aqueous buffer solution [1]: drops in water

CC(N)Cc1ccccc1 (stereo not shown) [amphetamine, reference compound]
loss of 511 fluorescence (DA terminals; 10 μM, 10 min, striatal slice): ~50%

COC(=O)[C@H]1[C@H]2C[C@@H]3c4[nH]c5cc(OC)ccc5c4CCN3C[C@H]2C[C@@H](OC(=O)c2cc(OC)c(OC)c(OC)c2)[C@@H]1OC [reserpine, reference compound]
inhibition of 511 labeling by VMAT2 inhibitors (DA terminals): strongly inhibited

COc1cc2c(cc1OC)C1CC(=O)C(CC(C)C)CN1CC2 (stereo not shown) [tetrabenazine, reference compound]
inhibition of 511 labeling by VMAT2 inhibitors (DA terminals; striatal slice, reserpine 10 μM, 2 hours (FIG. 36B)): strongly inhibited
